Here are results for eleven compounds from patent US5326902A, “Oxyalkyne compounds, pharmaceutical compositions containing them and processes for preparing such compounds and compositions” (Gruenenthal GmbH, priority 1992, dated 1994).

For orientation: IC50 means the concentration needed to halve the response being measured.

Experiment [1] has as its target T1, 5-lipoxygenase (Rattus norvegicus, UniProt P12527).
T1 construct: endogenous in cells; host or cells: RBL-1 cells (rat basophilic leukemia)
T1 sequence (P12527 1-673): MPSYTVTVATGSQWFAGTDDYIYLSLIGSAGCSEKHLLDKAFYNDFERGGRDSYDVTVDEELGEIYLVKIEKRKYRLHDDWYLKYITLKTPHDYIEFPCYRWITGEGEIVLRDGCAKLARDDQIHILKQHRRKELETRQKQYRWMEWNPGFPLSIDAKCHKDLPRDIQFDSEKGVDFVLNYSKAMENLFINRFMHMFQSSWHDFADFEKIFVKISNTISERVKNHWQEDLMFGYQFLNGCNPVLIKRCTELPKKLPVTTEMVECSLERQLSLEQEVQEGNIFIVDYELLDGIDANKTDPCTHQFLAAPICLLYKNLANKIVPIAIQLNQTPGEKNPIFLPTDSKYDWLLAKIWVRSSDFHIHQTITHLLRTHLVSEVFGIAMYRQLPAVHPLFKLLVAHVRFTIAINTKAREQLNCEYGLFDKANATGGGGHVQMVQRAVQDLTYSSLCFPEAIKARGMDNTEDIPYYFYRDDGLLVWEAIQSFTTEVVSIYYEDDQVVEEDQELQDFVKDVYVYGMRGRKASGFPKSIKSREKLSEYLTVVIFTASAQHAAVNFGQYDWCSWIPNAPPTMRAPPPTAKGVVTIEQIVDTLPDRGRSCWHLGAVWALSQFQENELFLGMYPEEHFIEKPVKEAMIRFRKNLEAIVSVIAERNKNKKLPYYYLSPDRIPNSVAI
Kind of experiment: Inhibition of 5-lipoxygenase in RBL-1-cells. The experiment is classed as cell-based. The conditions noted are these: 20 μM [14C]-arachidonic acid, 20 μM calcium ionophore A 23 187, 10 minutes. As for the experimental part:
To determine the inhibition of 5-lipoxygenase, rat basophilic leukemia cells (RBL-1-cells) were cultured in vitro, harvested by centrifugation, washed with 50 mM potassium phosphate buffer of pH 7.4, and then suspended in this buffer at 1×10^7 cells/ml. Indomethacin (10 μM) and calcium chloride (2 mM) were added to 1 ml portions of this suspension, and then the mixture was incubated either in the presence of a compound according to the invention in a concentration range of from 0,1 μM to 100 μM or in the presence of a solvent (ethanol and/or dimethyl sulfoxide) for 3 minutes and thereafter with 20 μM of [^14 C]-arachidonic acid and 20 μM of calcium ionophore A 23 187 for 10 minutes. The reaction was stopped by adding 20 μl of glacial acetic acid, and then the mixture was extracted with ethyl acetate to isolate the metabolites of arachidonic acid formed by the enzymatic action of 5-lipoxygenase. These were separated by thin layer chromatography using a solvent mixture known to be suitable for lipoxygenase products [c.f. Jakschik et al., Biochem. Biophys. Res. Commun. 102, 624 (1981)].
The distribution of radioactivity among the different metabolites of arachidonic acid was measured using a TLC Linear Analyzer. By correlating the percentage amounts of the products formed under the action of 5-lipoxygenase (5HETE, isomers of LTB4) in the absence as well as in the presence of different concentrations of compounds according to the invention, the IC50 -values, i.e. the concentrations which cause a 50% inhibition of 5-lipoxygenase, were determined graphically from semilogarithmic plots.

Experiment [2] relates to bronchoconstriction elicited by ovalbumin. The experiment can be described thus: Allergen-induced bronchoconstriction in guinea pigs (Konzett-Rossler). The experiment is classed as in vivo, guinea pig. The settings on record: Cavia porcellus, 1 h; oral, 60 minutes before ovalbumin (0.2 mg/kg intravenous); passively sensitized guinea pigs; read-out: ED40-Value (40% average inhibition of the bronchoconstriction elicited by ovalbumin). As for the experimental part:
The anti-asthmatic effect of compounds according to the invention was tested in anesthetized and ventilated guinea pigs. To induce an asthmatic reaction, the animals were passively sensitized by a single intraperitoneal injection of anti-ovalbumin serum. After 48 hours, the asthmatic reaction was elicited by intravenous challenge with 0.2 mg/kg of ovalbumin. The immediately resulting bronchoconstriction was measured as an increase in intratracheal pressure. Effects caused by histamine, serotonin and sympathic counterreaction were eliminated by intravenous pretreatment with 2.15 mg/kg of mepyramine, 46.4 μg/kg of propranolol, 4.64 mg/kg of atropine and 1 mg/kg of methysergide, all administered 5 minutes before challenge. Compounds according to the invention were administered orally 60 minutes before the administration of ovalbumin. The following […] for the inhibition of the bronchoconstriction elicited by ovalbumin, i.e. the effective doses causing a 40% average inhibition of the bronchoconstriction, were determined: […]

The subject of experiment [3] is 5-lipoxygenase. Kind of experiment: Inhibition of 5-lipoxygenase in Rat Blood After Oral Administration (ex vivo iLTB4-formation). The settings on record: male Wistar rats, one hour after administration. As for the experimental part: The bioavailability of the compounds of formula I as 5-lipoxygenase inhibitors was characterized by means of an ex vivo biochemical assay method described by Tateson et al. in Brit. J. Pharmacol. 94, 528 (1988): A compound of formula I was orally administered to male rats (Wistar strain) at a dose of 21.5 mg/kg. After lethal CO2 -narcosis one hour after administration, the rats were bled by heart puncture with added heparin as an anticoagulant. Aliquots of the whole blood were incubated at 37° C. for 30 minutes in a water bath with calcium ionophore A 23 187 at an end concentration of 15 μg/ml. At the end of the incubation, the samples were centrifuged, and the concentration of the immunoreactive LTB4 (iLTB4) in aliquots of cell-free plasma was determined by radioimmunoassay (3H-LTB4 -RIA, Amersham). To enable calculation of the inhibition in percent of ex vivo iLTB4 -formation in whole rat blood treated with a compound according to the invention, rats orally treated with an appropriate vehicle solution were included in all experiments, and aliquots of their blood were run in parallel and were processed in the same way as described. The average iLTB4 -content of the plasma of the vehicletreated rats served as a 100% value. The activity in percent of the ex vivo iLTB4 -formation after oral administration of a compound according to the invention was calculated by dividing the average value of the iLTB4 -contents in ng iLTB4 /ml of the group treated with a compound according to the invention by the average value of the iLTB4 -contents in ng iLTB4 /ml of the vehicle treated group and subsequent multiplication by a factor of 100. The respective inhibition in percent was calculated by subtracting the activity in percent from 100.

In experiment [4] the target is T1, 5-lipoxygenase. The experiment can be described thus: Inhibition of Cell-free 5-lipoxygenase from RBL-1-cells (polarographic, 10,000 × g supernatant). The settings on record: 10,000 × g supernatant of homogenized RBL-1-cells; arachidonic acid 75 μM; 35° C.; calculated IC50. It counts as biochemical. As to the method:
Cell-free 5-lipoxygenase was polarographically measured from 10,000 × g supernatant of homogenized rat basophilic leucemia cells (M. Haurand & L. Flohe in Biol. Chem. Hoppe-Seyler 369, 133 to 142 (1988)). After preincubation of the 10,000 × g supernatant with arachidonic acid (75 μM), ATP (adenosine triphosphate; 4 mM), reduced glutathione (4 mM), and either a compound according to the invention (0.1 to 100 μM) or a solvent (ethanol and/or dimethyl sulfoxide) at 35° C. for 5 minutes, the lipoxygenase reaction was initiated by addition of calcium chloride (3 mM) and simultaneously recorded.
The activity of 5-lipoxygenase was determined from the difference in the pO2 -decrease before and after addition of calcium chloride. The evaluation included the initial rate of the reaction after the lag-phase as well as the duration of the lag-phase. In the concentration range of from 3 to 50 μM, the test substances induced lag-phases between 20 and 60 seconds.

The next experiment addresses T2, 12-lipoxygenase (Homo sapiens, UniProt P18054).
T2 sequence (P18054 1-663): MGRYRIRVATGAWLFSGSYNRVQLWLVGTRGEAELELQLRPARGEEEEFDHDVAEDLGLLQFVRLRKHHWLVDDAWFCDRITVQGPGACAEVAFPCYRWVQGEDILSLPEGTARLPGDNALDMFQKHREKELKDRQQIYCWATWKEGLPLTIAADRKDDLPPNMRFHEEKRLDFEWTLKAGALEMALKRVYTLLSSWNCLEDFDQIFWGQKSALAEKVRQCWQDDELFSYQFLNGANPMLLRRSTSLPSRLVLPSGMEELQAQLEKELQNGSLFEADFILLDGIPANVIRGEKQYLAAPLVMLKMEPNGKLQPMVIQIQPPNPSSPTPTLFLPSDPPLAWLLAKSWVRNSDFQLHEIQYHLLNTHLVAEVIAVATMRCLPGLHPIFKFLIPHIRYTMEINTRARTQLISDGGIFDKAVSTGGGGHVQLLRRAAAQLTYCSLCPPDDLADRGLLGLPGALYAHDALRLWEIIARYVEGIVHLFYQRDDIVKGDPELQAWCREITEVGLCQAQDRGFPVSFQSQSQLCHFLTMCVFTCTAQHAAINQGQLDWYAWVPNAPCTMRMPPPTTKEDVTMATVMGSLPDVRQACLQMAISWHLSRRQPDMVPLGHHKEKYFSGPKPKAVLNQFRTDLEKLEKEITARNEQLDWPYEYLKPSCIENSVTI
The experiment can be described thus: Inhibition of 12-lipoxygenase in human blood. It counts as cell-based. On the set-up: 3 ml aliquots of human whole blood treated with heparin; from tissue; host or cells: human whole blood (heparinized). The settings on record: human whole blood; calcium ionophore A 23 187 15 μg/ml; 37° C., 30 minutes; 12-HETE by HPLC. As to the method:
3 ml aliquots of human whole blood treated with heparin were incubated either with a compound according to the invention or with dimethyl sulfoxide at 37° C. for 5 minutes. Then 12-lipoxygenase was activated by addition of calcium ionophore A 23 187 (15 μg/ml blood). After incubation at 37° C. for 30 minutes and centrifugation, cell-free plasma was obtained. Plasma protein was precipitated by addition of 2 ml of ethanol per ml of plasma and then separated by centrifugation. After adjusting the ethanol content in the supernatant with water to 10% by volume, the 12-lipoxygenase product 12-HETE was enriched by solid phase extraction using an octadecyl silica column. The methanolic eluate was evaporated to dryness, diluted in 40% by volume of methanol, and the 12-HETE-content was determined by HPLC. The IC50 -values of the compounds of the invention prepared according to Examples 1, 8 and 16 were 2, 4 and 3 μmolar, respectively.

Turning to `NC(=O)N(O)Cc1ccc(C(O)C#Cc2ccsc2)cc1` (centres unmarked) [Example 28, N-Hydroxy-N-[4-[1-hydroxy-3-(3-thienyl)prop-2-yn-1-yl]benzyl]urea], the half-inhibitory concentration (IC50) at 5-lipoxygenase [1] came out at 4 µM. The ED40 in experiment [2] was found to be 17 mg/kg.

With `CC(=O)N(O)Cc1ccc(C(O)C#Cc2ccsc2)cc1` (centres unmarked) [Example 17, N-Hydroxy-N-[4-[1-hydroxy-3-(3-thienyl)prop-2-yn-1-yl]benzyl]acetamide], the IC50 on 5-lipoxygenase [1] turned out to be 5 µM. The “Inhibition [%] of ex vivo iLTB4-formation” value (“Inhibition [%]” for short) in the experiment with 5-lipoxygenase [3] (21.5 mg/kg oral) worked out at 77%.

As to `COc1cccc(C#CC(O)c2ccc(CN(O)C(N)=O)cc2)c1` (centres unmarked) [Example 26, N-Hydroxy-N-[4-[1-hydroxy-3-(3-methoxyphenyl)prop-2-yn-1-yl]benzyl]urea], the IC50 at 5-lipoxygenase [1] worked out at 4 µM. For the same compound, the ED40 in experiment [2] worked out at 17 mg/kg.

In the case of `CC(=O)N(O)Cc1ccc(C(O)C#Cc2cccc(Cl)c2)cc1` (centres unmarked) [Example 10, N-Hydroxy-N-[4-[1-hydroxy-3-(3-chlorophenyl)prop-2-yn-1-yl]benzyl]acetamide], the IC50 on 5-lipoxygenase [1] was 4 µM. Besides, the “Inhibition [%]” value with 5-lipoxygenase [3] (21.5 mg/kg oral) amounted to 75%.

In the case of `CC(=O)N(O)Cc1ccc(C(O)C#Cc2cccc3ccccc23)cc1` (centres unmarked) [Example 15, N-Hydroxy-N-[4-[1-hydroxy-3-(1-naphthyl)prop-2-yn-1-yl]benzyl]acetamide], the IC50 on 5-lipoxygenase [1] is 3 µM; on 5-lipoxygenase [4], 7 µM. Besides, in the experiment with 5-lipoxygenase [3] (21.5 mg/kg oral), the “Inhibition [%]” value stood at 71%.

As for `NC(=O)N(O)Cc1ccc(C(O)C#Cc2cccc(Cl)c2)cc1` (centres unmarked) [Example 23, N-Hydroxy-N-[4-[1-hydroxy-3-(3-chlorophenyl)prop-2-yn-1-yl]benzyl]urea], the IC50 on 5-lipoxygenase [1] was 4 µM. Besides, in experiment [2], the ED40 was found to be 18 mg/kg.

As for `CC(=O)N(O)Cc1ccc(C(O)C#Cc2ccccc2)cc1` (single isomer, unassigned; (-)) [Example 3, (-)-N-Hydroxy-N-[4-[1-hydroxy-3-phenyl-prop-2-yn-1-yl]benzyl]acetamide], at 5-lipoxygenase [1], the IC50 turned out to be 5 µM. The ED40 in experiment [2] was found to be 9 mg/kg.

Turning to `NC(=O)N(O)Cc1ccc(C(O)C#Cc2ccccc2Cl)cc1` (centres unmarked) [Example 22, N-Hydroxy-N-[4-[1-hydroxy-3-(2-chlorophenyl)prop-2-yn-1-yl]benzyl]urea], the results for the IC50 at 5-lipoxygenase [1] and at 5-lipoxygenase [4] were 4 µM and 8 µM, respectively. Further, the “Inhibition [%]” value with 5-lipoxygenase [3] (dose 10 mg/kg, oral) is 83%.

`CC(=O)N(O)Cc1ccc(C(O)C#Cc2ccc(Cl)cc2)cc1` (centres unmarked) [Example 11, N-Hydroxy-N-[4-[1-hydroxy-3-(4-chlorophenyl)prop-2-yn-1-yl]benzyl]acetamide]: the IC50 on 5-lipoxygenase [1] is 8 µM. Moreover, in the experiment on 5-lipoxygenase [3] (dose 10 mg/kg, oral), the “Inhibition [%]” value worked out at 95%.

Regarding `CC(=O)N(O)Cc1ccc(C(O)C#Cc2cccs2)cc1` (centres unmarked) [Example 16, N-Hydroxy-N-[4-[1-hydroxy-3-(2-thienyl)prop-2-yn-1-yl]benzyl]acetamide], the IC50 is 3 µM at 5-lipoxygenase [1], 6 µM at 5-lipoxygenase [4] and 3 µM on 12-lipoxygenase.

Consider `NC(=O)N(O)Cc1ccc(C(O)C#Cc2ccc(F)cc2)cc1` (racemic) [Example 25, N-Hydroxy-N-[4-[1-hydroxy-3-(4-fluorophenyl)prop-2-yn-1-yl]benzyl]urea], for which the IC50 on 5-lipoxygenase [1] and on 5-lipoxygenase [4] was 3 µM each time. The ED40 in experiment [2] came out at 10 mg/kg.
